Assay results as given in patent publication US6911531B2, “Antibodies directed towards a novel human EP prostaglandin receptor” (Allergan, Inc., priority 1994, dated 2005).

Columns and labels:
human HP4 receptor [1] = target: T1, human HP4 receptor (Homo sapiens, UniProt P43116); assay: Competition of [3H]-PGE2 binding to membranes of HP4-transfected COS-7 cells; settings: [3H]-PGE2 5 nM, 100 μg protein/tube, 60 minutes at room temperature; FIG. 1A-1C
T1 construct: a plasmid with a complete open reading frame in the sense orientation was isolated; expressed in transfected cells; host or cells: COS-7 cells (ATCC CRL 1651), transient DEAE-dextran transfection with pBC/HP4
Method: (§1) Monolayers of COS-7 cells (ATCC CRL 1651; 70-80% confluent) were rinsed with Phosphate Buffered Saline (PBS, Ca/Mg-free) in 150×25 mm culture dishes. Ten ml transfection mix, consisting of 5 μ/ml plasmid DNA and 0.5 mg/ml DEAE-dextran in PBS, was added to each dish and cells were incubated for 30 min at 37° C. Nine ml of the solution was removed from each dish followed by the addition of 10 ml of […] chloroquine in Dulbecco's Modified Eagle Medium (DMEM)/5% fetal bovine serum (FBS). The cells were incubated for 2.5 hr at 37° C., the solution aspirated and 10 ml of 10% dimethyl sulfoxide (DMSO) in DMEM/5% FBS was added. After a 2.5 minute incubation at 37° C., the solution was aspirated and 30 ml DMEM/5% FBS was added. The cells were incubated at 37° C. with media changes at 24 and 48 hours. After 72 hours, the media was aspirated and the cells were scraped into cold TME buffer (50 mM Tris-HCl, pH 7.4, 10 mM MgCl2, 1 mM EDTA). The dishes were rinsed with cold TME buffer and the cells combined and placed on ice.
Transfected COS-7 cells were homogenized for 30 seconds at approximately 80% power with a Brinkman PT 10/35 Polytron homogenizer. The resulting homogenate was centrifuged at 19,000 rpm for 20 minutes at 4° C. using a Sorvall SS-34 rotor. The membrane pellet was resuspended in cold TME buffer (1 ml per original dish), frozen in liquid nitrogen and stored at −80° C.
Membrane pellets were then diluted in ice-cold 50 mM Tris-HCl buffer at pH 7.4 using a sonicator set at 50 watts. Membrane suspensions (100 μl) were then added to each assay tube to start the binding reaction. Final concentrations of the competition assay were as follows: [^3H]-PGE2, 5 nM; 100 μg protein/tube in a total volume of 200 μl. Increasing concentrations of compounds to be tested for competitively inhibiting binding were incubated for 60 minutes at room temperature. Contents were aspirated onto a presoaked ice-cold Whatman GF/B filter using a Brandel Cell Harvester and washed three times with ice-cold assay buffer. The filters were dried, placed in scintillation fluid and counted.

[2] = Nials et al., 1993; cited from earlier work
human neutrophils = settings: Nials et al., 1993; cited from earlier work
human myometrium = settings: Yeardley et al., 1992; cited from earlier work
human HP4 receptor [3] = target: T1, human HP4 receptor; assay: cAMP assay on HP4-transfected COS-7 cells; format: cell-based; settings: FIG. 2
Method: as §1
HP4-transfected COS-7 cells, prepared as described in Example 2, were cultured in DMEM containing 10% FCS, 100 units/ml penicillin, 100 μ/ml streptomycin. […] Cells were trypsinized and resuspended in a small volume of medium (2-3 ml), counted using a hemocytometer and diluted to 7-8×10^4 cells/ml (DMEM/5% FCS). […] The amount of cAMP was quantified as follows. […]

putative EP2 receptor = settings: cloned receptor of An et al. 1993 / Honda et al. 1993; cited from earlier work

T1 sequence (P43116 whole entry): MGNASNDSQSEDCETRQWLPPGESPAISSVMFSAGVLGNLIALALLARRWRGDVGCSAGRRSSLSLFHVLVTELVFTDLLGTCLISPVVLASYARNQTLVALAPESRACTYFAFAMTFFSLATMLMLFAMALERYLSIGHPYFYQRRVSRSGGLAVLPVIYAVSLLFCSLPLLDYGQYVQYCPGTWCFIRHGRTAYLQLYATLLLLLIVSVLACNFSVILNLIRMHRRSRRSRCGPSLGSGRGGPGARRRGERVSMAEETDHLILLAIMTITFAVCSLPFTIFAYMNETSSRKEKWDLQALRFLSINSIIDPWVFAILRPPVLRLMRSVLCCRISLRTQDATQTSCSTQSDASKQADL

Row | Compound | competition of [3H]-PGE2 binding (human HP4 receptor [1]) | other results
1 | CS(=O)(=O)NC(=O)CCC/C=C\C[C@H]1C(=O)C[C@@H](O)[C@@H]1/C=C/[C@@H](O)COc1ccccc1 [Sulprostone] | inactive | 
2 | C[C@@H](O)CCC[C@H](O)/C=C/[C@H]1[C@H](O)CC(=O)[C@@H]1C/C=C\CCCC(=O)O [19(R)-hydroxy PGE2] | exhibited competitive activity | 
3 | CCCCC(C)(C)[C@H](O)/C=C/[C@H]1[C@H](O)CC(=O)[C@@H]1C/C=C\CCCC(=O)O [16,16-dimethyl PGE2] | active | 
4 | O=C(O)CCCCCC[C@H]1C(=O)CC[C@@H]1/C=C/[C@@H](O)COc1ccccc1 [MB 28767] | only slightly active | 
5 | CCCCC[C@H](O)/C=C/[C@H]1CCC(=O)[C@@H]1CCCCCCC(=O)O [11-deoxy PGE1] | exhibited competitive activity | 
6 | CCCC1([C@H](O)C/C=C/[C@H]2[C@H](O)CC(=O)[C@@H]2CCCCCCC(=O)OC)CCC1 [butaprost] | displaced | activity at the putative EP2 receptor clone (putative EP2 receptor): inactive
7 | CCCCC[C@H](O)/C=C/[C@H]1[C@H](O)CC(=O)[C@@H]1CCCCCCCO [PGE1-1-OH] | only slightly active | 

Second part, led by results:

Row | competition of [3H]-PGE2 binding (human HP4 receptor [1]) | Compound | other results
8 | strongest competitors | CCCCC[C@H](O)/C=C/[C@H]1[C@H](O)CC(=O)[C@@H]1CCCCCCC(=O)O [PGE1] | 
9 | displaced | CCCCCC(O)c1ccc(C2CCC(=O)C2CCCCCCC(=O)O)cc1 (stereo not shown) [AH13205] | bronchodilation [2]: induce bronchodilation; release of the inflammatory mediator leukotriene B4 (human neutrophils): inhibit; spontaneous contraction of human myometrium (human myometrium): inhibits
10 | strongest competitors | CCCCC[C@H](O)/C=C/[C@H]1[C@H](O)CC(=O)[C@@H]1C/C=C\CCCC(=O)O [PGE2, Prostaglandin E2] | cAMP levels (human HP4 receptor [3]; IBMX, 3 minutes at 37° C.): significantly increased; potency order of stimulation of cAMP formation (human HP4 receptor [3]; order PGE2, AH13205, butaprost, PGE1-1-OH): potently stimulate cAMP formation
